Results on 4 compounds are retold here after patent US20250115874A1, “Compositions And Methods For Making And Using Atherosclerotic Nanomatrix Vascular Sheets” (UAB RESEARCH FOUNDATION, priority 2023, published 2025).

Each structure is given as a SMILES string.

Common to all, as to format: cell-based, human
The subject of assay [1] is foam cell formation on the VSA. The experiment in a line: VSA foam cell assay (BODIPY staining). Conditions: for foam cell formation (BODIPY): day 10, vs. control 100%; for foam cell generation (BODIPY): day 10, vs. control. The procedure:
Experimental: (1) Fabrication of large-scale VSA high throughput culture systems: Individual VSAs were fabricated in each well of a 48-well tissue culture plate, following the method described in Example 4 (FIG. 7A, step 1), to create a high throughput culture system for testing drug effects on atherosclerosis. (2) The VSAs were divided into two groups: treated and untreated. (3) The treated group was treated with rosuvastatin (10 uM) or sirolimus (10 nM) by dilution of the stock solution into the “culture medium 7” on day 0 (FIG. 7B, step 2). (4) The VSAs, both treated and untreated, were co-cultured for 10 days with a fresh culture medium 7 with monocytes added on day 3 and day 7, respectively. (5) BODIPY staining was used to quantify foam cell formation: On day 10, a 10 mM BODIPY stock solution was prepared by dissolving in DMSO and stored at −20° C. Before the experiment, a 100 times diluted working solution was prepared from the stock solution using PBS. The VSAs were gently washed with PBS, then BODIPY was added, incubated in the dark for 30 min, imaged immediately using a microscope, and quantified at ex/em 485 nm/520 nm.
Experimental: (1) Fabrication of VSA high throughput culture systems: the large-scale VSA high throughput culture system was achieved by fabricating individual VSAs in each well of the 48-well tissue culture plate, following the same method described in Example 4 (FIG. 7A, step 1). (2) Divide the VSAs into two groups. (3) Treatment of VSAs in one group with curcumin (200 uM) or colchicine (100 nM) by dilution of the stock solution into the “culture medium 7” containing monocytes on day 0 (FIG. 7B, step 2). (4) The VSAs, treated or untreated, were co-cultured for 10 days. A fresh culture medium 7 was added to the co-culture system on day 3 and day 7, respectively. (5) BODIPY staining: On day 10, 10 mM BODIPY stock solution was prepared by dissolving in DMSO and stored at −20° C. Before the experiment, 100 times diluted working solution was prepared from stock solution using PBS. Then, the VSAs treated or untreated with curcumin (200 uM), and colchicine (100 nM) were gently washed with PBS, then BODIPY was added and incubated in the dark.
Experimental: (1) Fabrication of VSA high throughput culture systems: the large-scale VSA high throughput culture system was achieved by fabricating individual VSAs in each well of the 48-well tissue culture plate, following the same method described in Example 4 (FIG. 7A, step 1). (2) Divide the VSAs into two groups. (3) Treatment of VSAs in one group with free miR-146a (600 nM) by dilution of the stock solution into the culture medium 7 on day 0 (FIG. 7B, step 2). (4) The VSAs, treated or untreated, were co-cultured for 10 days. […]

In assay [2] the test system is cytokine secretion of VSAs. Put plainly: VSA cytokine assay (ELISA of supernatant).
The test system of assay [3] is atherosclerosis-related gene expression of VSAs. Put plainly: VSA gene assay (qRT-PCR). The method, then: Experimental: To create a large-scale VSA high throughput culture system, individual VSAs were fabricated in each well of a 48-well tissue culture plate using the method described in Example 4 (FIG. 7A, step 1). The VSAs were then divided into two groups. One group was treated with rosuvastatin (10 uM) and sirolimus (10 nM) by diluting the stock solution into the “culture medium 7” containing monocytes on day 0 (FIG. 7B, step 2). The treated and untreated VSAs were co-cultured for 10 days with fresh culture medium 7 with monocytes added on day 3 and day 7, respectively. On day 10, RNA was extracted using the TRIzol™ reagent (Invitrogen) and purified using the Direct-Zol™ RNA Miniprep Plus kit following the protocol (Zymo Research). EDTA was added before phase separation to bind the calcium and help disintegrate the nanomatrix VSAs. The upper transparent aqueous phase was collected and RNA was suspended in nuclease-free water. The concentration and purity of RNA for each sample were determined using an ND-1000 UV spectrophotometer (Nanodrop). Complementary DNA was synthesized using 50 ng of RNA and reverse transcribed in a 2720 Thermo Cycler (Applied Biosystems) using a Verso cDNA Synthesis Kit (Thermo Fisher) according to the manufacturer's protocol. Samples were prepared in a 96-well PCR plate using the TaqMan Master Mix protocol. Each sample consisted of 2 μL of cDNA solution, 10 μL of 2× master mix, 7 μL of RNA-free water, and 1 μL of gene primer from a TaqMan Gene Expression Assay kit (Applied Biosytems). The PCR plate was run in a LightCycler 480 (Roche Life Science) for the following cycles: pre-incubation at 50° C. for 2 minutes and 95° C. for 10 min; amplification for 45 cycles, at 95° C. for 15 seconds, and 60° C. for 1 minute during each cycle; melting at 95° C. for 5 seconds and 65° C. for 1 minute, and cooling at 40° C. for 30 seconds.
Experimental: (1) Fabrication of VSA high throughput culture systems: the large-scale VSA high throughput culture system was achieved by fabricating individual VSAs in each well of the 48-well tissue culture plate, following the same method described in Example 4 (FIG. 7A, step 1). (2) Divide the VSAs into two groups. (3) Treatment of VSAs in one group with curcumin (200 uM) or colchicine (100 nM) by dilution of the stock solution into the “culture medium 7” containing monocytes on day 0 (FIG. 7B, step 2). (4) The VSAs, treated or untreated, were co-cultured for 10 days. A fresh culture medium 7 with monocytes was added to the co-culture system on day 3 and day 7, respectively. (5) RNA extraction and real-time qRT-PCR: On day 10, before phase separation, EDTA (Ethylenediaminetetraacetic acid) was added to bind the calcium and help disintegrate the nanomatrix VSAs. For phase separation, TRIzol™ reagent was added to the samples (>9 times of the sample volume) and incubated for 5 min. Then chloroform was added, mixed by shaking, and centrifuged (11,600 g, 15 min, 4° C.) to obtain phase separation. The upper transparent aqueous phase was collected and purified using the Direct-Zol™ RNA Miniprep Plus kit following the protocol. RNA was suspended in nuclease-free water, and an ND-1000 UV spectrophotometer was used to quantify the concentration and purity of RNA for each sample. Complementary DNA was then synthesized using 50 ng of RNA, which was reverse transcribed in a 2720 Thermo Cycler (Applied Biosystems) using a Verso cDNA Synthesis Kit according to the manufacturer's protocol. Samples were prepared in a 96-well PCR plate using the TaqMan Master Mix protocol. Each sample consisted of 2 μL of cDNA solution, 10 μL of 2× master mix, 7 μL of RNA-free water, and 1 μL of gene primer from a TaqMan Gene Expression Assay kit. […]

Assay [4] deals with cytokine secretion of VSAs. Put plainly: VSA cytokine assay (ELISA of supernatant). The method, then: (§1) Experimental: (1) Fabrication of VSA high throughput culture systems: large-scale VSA high throughput culture systems were achieved by fabricating individual VSAs in each well of the 48-well tissue culture plate, following the same method described in Example 4 (FIG. 7A, step 1). (2) Divide the VSAs into two groups. (3) Treatment of VSAs in one group with rosuvastatin (10 uM) or sirolimus (10 nM) by dilution of the stock solution into the culture medium 7 on day 0 (FIG. 7B, step 2). (4) The VSAs, treated or untreated, were culturing in culture medium 7 for 10 days. A fresh culture medium 7 was added to the co-culture system on day 3 and day 7, respectively. (5) ELISA: On day 10, the supernatant from VSAs was collected for ELISA to measure the significant inflammatory cytokine secretion.
as §1, with “systems: the” for “systems:”, “system was” for “systems were”, “curcumin (200” for “rosuvastatin (10”, “colchicine (100” for “sirolimus (10”, “cultured using” for “culturing in”, “measure” for “measure the significant”
as §1, with “systems: the” for “systems:”, “system was” for “systems were”, “free miR-146a (600 nM)” for “rosuvastatin (10 uM)”, “Lip-miR-146a (600” for “sirolimus (10”, “co-cultured” for “culturing in culture medium 7”, “Afresh” for “A fresh”
The source holds these as a separate data set.

Setting [5] is: sirolimus 10 nM, day 10, of the control group.
Setting [6] is: sirolimus 10 nM, day 10, relative to the control.
The mark [7] stands for this setting: curcumin 200 uM, day 10, vs. control.
The mark [8] stands for this setting: colchicine 100 nM, day 10, vs. control.
Setting [9] is: rosuvastatin 10 uM, day 10, compared to the control.
The mark [10] stands for this setting: rosuvastatin 10 uM, day 10, vs. control.

As for `CO[C@H]1C[C@@H]2CC[C@@H](C)[C@@](O)(O2)C(=O)C(=O)N2CCCC[C@H]2C(=O)O[C@H]([C@H](C)C[C@@H]2CC[C@@H](O)[C@H](OC)C2)CC(=O)[C@H](C)/C=C(\C)[C@@H](O)[C@@H](OC)C(=O)[C@H](C)C[C@H](C)/C=C/C=C/C=C/1C` [sirolimus], the “foam cell formation (BODIPY)” value in assay [1] (sirolimus 10 nM) was 42.73±10.62%. In addition, in assay [2] (setting [5]), the IFN-γ production came to 43.64±17.04%, the MCP-1 production is 22.76±2.56% and the TNF-α production is 40.67±6.42%. In assay [2] (setting [6]), this compound returned an IL-4 secretion of 6.42±3.59 fold and an IL-13 secretion of 1.67±0.59 fold.
As for `COc1cc(/C=C/C(=O)CC(=O)/C=C/c2ccc(O)c(OC)c2)ccc1O` [curcumin], in assay [1] (curcumin 200 uM), the “foam cell generation (BODIPY)” value is listed as 31.23±5.68%. In assay [3] (setting [7]), this compound gave an MMP-2 gene expression of 39.22±7.14%, a PECAM-1 gene expression of 29.71±5.68% and a VEGF-A gene expression of 38.01±5.68%. In assay [4] (setting [7]), this compound gave an IL-1α production of 80.58±4.91% and an IL-10 production of 2.10±0.29 fold. In assay [2] (setting [7]), this compound had an IL-8 production of 40.90±5.72% and an MCP-1 production of 76.87±3.35%.
For the compound `COc1cc2c(c(OC)c1OC)-c1ccc(OC)c(=O)cc1[C@@H](NC(C)=O)CC2` [colchicine], the “foam cell generation (BODIPY)” value in assay [1] (colchicine 100 nM) was determined as 50.86±4.57%. In assay [3] (setting [8]), the COL3A1 gene expression is given as 8.93±1.30%, the MMP-2 gene expression is 6.36±1.44% and the PECAM-1 gene expression came to 3.35±0.68 fold. In assay [4] (colchicine 100 nM, day 10), the IL-1α production is given as 71.31±5.84%. Further, in assay [4] (setting [8]), the IL-4 production was 1.39±0.14 fold and the IL-8 production was 42.57±1.80%. In assay [2] (setting [8]), this compound yielded an IFN-γ production of 61.95±7.79%, an MCP-1 production of 26.31±1.77% and a TNF-α production of 53.16±7.92%.
Regarding `CC(C)c1nc(N(C)S(C)(=O)=O)nc(-c2ccc(F)cc2)c1/C=C/[C@@H](O)C[C@@H](O)CC(=O)O` [rosuvastatin], the “foam cell formation (BODIPY)” value in assay [1] (rosuvastatin 10 uM) was 50.77±8.32%. Also, in assay [3] (setting [9]), the MMP-2 gene expression is recorded as 4.46±1.75% and the VEGF-A gene expression entry is “significantly lower”. The IL-6 gene expression in assay [3] (rosuvastatin 10 uM, day 10, of control) is given as 5.20±0.38%. In assay [3] (setting [10]), this compound returned a COL17A1 gene expression of 127.03±35.49 fold and a PECAM-1 gene expression of 146.76±44.63 fold. In addition, in assay [4] (setting [10]), the IFN-γ production worked out at 44.03±3.20%, the IL-1α production is listed as 66.78±6.52%, the IL-6 production is recorded as 71.50±4.34% and the TNF-α production is listed as 39.69±5.53%. Moreover, in assay [2] (rosuvastatin 10 uM, day 10, compared with the control), the IL-10 secretion is 2.10±0.50 fold. This compound yielded an IL-8 production in assay [2] (setting [10]) of 48.64±6.17%.
